Where two headings read alike, the source gives them in different places.
How the values were obtained:
[1] = system: TNBS induced inflammatory bowel disease; assay: TNBS induced inflammatory bowel disease; format: in vivo, Female Balb/C mice; conditions: for transient loss in body weight: one day after TNBS instillation; for mortality: untreated 60%
Method: Female Balb/C mice (average body weight 20 g, Harlan, Israel) were lightly sedated and challenged rectally, by instillation with 70 μl of 2.5% TNBS (Sigma) dissolved in 50% ethanol, to induce intestinal inflammation and colitis. Animals were weighted before the beginning of the study and treatment was administered i.p. on a daily basis for six days at 20 mg/kg and volume dosage of 5 ml/kg. During the study period of up to 7 days, the following parameters were daily monitored and recorded: body weight, presence of blood in the stool and stool consistency. These findings are scored according to Table 6 [Murthy S.N. et al., Dig. Dis. Sci. 38:1722-34, 1993].
On the last day of the study, animals were euthanized. Abdomen was open and the colon was sectioned at the level of the caecum and the rectum. The colon was weighted and its length was measured. The whole column was excised, slited longitudinally, and examined under a magnifying lens. Any visible damage was recorded and scored for gross pathology according to Wong [Wong et al., J. Pharm. Exp. Ther. 274: 475-80, 1995]. Namely, a score of 0 indicates no damage, 1 indicates localized hyperemia and/or edema, 2 indicates at least two sites of hyperemia and/or edema, 3 indicates localized erosion, 4 indicates localized ulcer and 5 indicates either an erosion site or ulcer extending for more than 2 cm along the colon or at least two sites of erosion or ulcer. Finally, the entire colon was fixed in 4% formaldehyde for histopathological evaluation.
Each treatment group comprised at least seven animals. The following groups served as negative controls: naïve animals, sham animals that received 70 μl of 50% ethanol without TNBS, and TNBS challenged untreated and vehicle treated animals. A group of animals receiving 10 mg/kg sulfasalazine served as positive controls. Sulfasalazine is a standard anti-inflammatory drug used for the treatment of mild to moderate ulcerative colitis and Crohn's disease, and as adjunctive therapy in the treatment of severe ulcerative colitis. This drug is also used for the treatment of non-IBD related disorders, such as rheumatoid arthritis and ankylosing spondylitis. The recognized side effect of this medicament is its hepatotoxicity upon chronic treatment.

[2] = system: visceral pain writhing responses; assay: Visceral pain, acetic acid induced writhing responses; format: in vivo, Male ICR mice; conditions: single dose 2 mg/kg i.v., compared to untreated group
[3] = system: mechanical allodyna after chronic constriction of the sciatic nerve; assay: Neuropathic pain, chronic constriction of the sciatic nerve (CCI); format: in vivo, Male Sprague Dawley rats; conditions: both 0.25 and 2 mg/kg i.v.
Method: The analgesic activity of compounds of the invention was assessed in a chronic constriction induced (CCI) model of neuropathic pain. […] The development of mechanical allodyna was monitored using a Dynamic Plantar Sesthesiomether as described in Example 18. This apparatus is an automated version of the classical von Frey filaments' test.
Pre-surgery baseline values were ascertained as the mean of 2 pre-surgery values. Once the baseline values are established, the animals were surgically prepared by constricting the right sciatic nerve with 4-0 chromic cat gut loose ligatures. On day 11 post-operation, the animals that have developed mechanical allodyna were arbitrarily allocated to the various treatment groups based on the pre-surgery values.
The design was randomized, performed in a masked fashion as to whether drug or vehicle is being given. Male Sprague Dawley rats (average body weight 240 g, Harlan, Israel), were allowed to acclimatize to the behavioral testing equipment prior to testing. On the testing day, the animals, at least six per treatment group, were administered the compounds and controls at a volume dosage of 5 ml/kg. Fifteen minutes later, the mechanical stimulus was applied and the force, measured in grams, causing a withdrawal response for each of the ipsilateral and contralateral hind paws was evaluated.
Results are expressed as mean±SEM for each treatment group and the differences among those groups are analyzed by analysis of variance (ANOVA) followed by post-hoc Tukey's test. A value of p<0.05 is considered to be statistically significant. Thereafter the difference in the force to be applied to the injured paw as compared to the normal paw was calculated. Δforce, expressed in grams, was measured at baseline and 1 and 4.5 hours after treatment.

[4] = system: carrageenan induced inflammatory pain and paw edema; assay: Inflammatory pain and paw edema induced by carrageenan; format: in vivo, Male Sprague Dawley rats; conditions: for inhibition in vivo at 10 mg/kg: Rattus norvegicus, ip
In short: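 Male Sprague Dawley rats (~200 g) received 0.1 ml 2% λ-carrageenan subplantar in the right paw; compounds given i.p. at 3, 10 or 20 mg/kg (some p.o.) immediately after. Thermal (Hargreaves) latency, mechanical threshold, paw thickness and volume measured at 0 and 3 h; values are inter-paw differences ([…], ΔForce), volume as % of vehicle.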

[5] = target: T1, Human CB2 Receptor (Homo sapiens, UniProt P34972); assay: [35S]GTPγS-binding assay, hCB2; format: biochemical; conditions: GTPγS, Human CB2 Receptor; NB = no binding
T1 construct: host or cells: Sf9 or HEK-293 cells (membranes)
Method: (§1) Functional activity of compounds of the invention toward the cannabinoid receptors was determined by stimulation of [^35S]-GTPγS binding using membranes from HEK-293 cells expressing the hCB1 receptor and membranes expressing the hCB2 receptor derived from either Sf9 (PerkinElmer) or from HEK-293 cells. Activities were compared to that of the known cannabinoid full agonist CP55940 (Alexis). The purpose of this experiment is to determine the potency of the compounds of the invention as agonists or antagonists toward each of the receptor tested.
(§2) [^35S]-GTPγS binding reactions were performed at 30° C. in 96-well plates containing 5-10 μg membrane protein suspended in 0.1 ml binding buffer [20 mM HEPES-NaOH, pH 7.4, 5 mM MgCl2, 100 mM NaCl, 0.2% (w/v) bovine serum albumin] supplemented with 50 μM GDP and 0.06 nM-10 μM of the compound being tested. Binding was initiated by the addition of [^35S]GTPγS (0.3 nM final concentration). Incubations were performed for 90 minutes and were terminated by filtration on GF/C filter plates (PerkinEimer). Filters were washed ten times with ice-cold wash buffer (20 mM HEPES-NaOH, pH 7.4, 10 mM sodium pyrophosphate). Non-specific binding was measured in the presence of 15 μM GTPγS.
(§3) Assays were performed in duplicates. Data was analyzed by plotting on the X axis the log concentration against percent of specific [^35S]GTPγS binding out of basal [^35S]GTPγS binding on the Y axis, non-linear regression is then performed using GraphPad Prism, version 3.0 (GraphPad, San Diego, Calif.) to calculate the EC50 and Emax of the compound. The EC50 value represents the concentration at which there is 50% [^35S]GTPγS binding and the Emax value the upper plateau of the curve.

[6] = system: IL-1β; assay: Gene expression in LPS activated RAW 264.7 macrophages, IL-1β; format: cell-based, mouse; conditions: RAW 264.7, 10 μM, LPS 1 μg/ml, RNA 3 hrs after activation, vs vehicle treated activated cells
Method: (§4) RAW 264.7 macrophages, a mouse cell line (ATCC # TIB 71), were grown in Dulbecco's modified Eagle's medium (DMEM) with 4 mM L-glutamine adjusted to contain 1.5 g/L sodium bicarbonate, 4.5 g/L glucose, and 10% heat inactivated fetal bovine serum. Cells were grown in tissue culture flasks and seeded at appropriate density into 6 wells tissue culture plates. Four million Raw cells in half a milliliter were stimulated with 1 μg/ml LPS E. coli 055:B5 (DIFCO Laboratories). The mouse macrophages were pre-treated for one hour with controls or 10 μM of test compounds, and later on activated with LPS. RNA samples were extracted from the cells 3 hrs after activation and gene expression levels were analyzed by real-time RT-PCR. In parallel, supernatants were collected and secretion of inflammatory mediators was analyzed using ELISA techniques according to the instructions of the kit manufacturer.
(§5) Total RNA is prepared using SV total RNA isolation system (Promega). The cells were homogenized in lysis buffer. The lysates were transferred to an RNA isolation column, treated with DNAse, washed and eluted according to kit instructions. RNA concentrations were determined using GeneQuant II (Pharmacia-Amersham). Complementary DNA (cDNA) was synthesized from total RNA using […] II reverse transcriptase (Life Technologies). 2 μg of total RNA were combined with an oligo (dT)15 primer, 0.5 mM dNTP mix, 8 units of reverse transcriptase and other reaction components up to a final volume of 20 μl, according to the kit instructions. The reaction mixture was incubated at 42° C. for 45 min and inactivated at 70° C. for 15 minutes. Quantitative real-time RT-PCR included 1 μl of the cDNA, 300 nM of the appropriate forward and reverse primers (according to the gene monitored) and 7.5 μl of the reaction mix containing buffer, nucleotides, Taq polymerase and SYBER green (SYBER Green master mix, Applied Biosystems), in a total reaction volume of 15 μl. Gene amplification was obtained using the GeneAmp 5700 sequence detection system (Applied Biosystems). Amplification included one stage of 10 minutes at 95° C. followed by 40 cycles of a 2-steps loop: 20 seconds at 95° C., and 1 minute at 60° C. During each annealing step, the amount of the amplified product was measured by the fluorescence of the double strand DNA binding dye, SYBER Green. The cycle of threshold (CT), representing the PCR cycle at which an increase in fluorescence above a baseline signal can be first detected, was determined for each product. A delay of one PCR cycle in the CT is translated into a two-fold decrease in starting template molecules and vice versa. The changes in the CT of the specific gene product were normalized to the changes in the CT of housekeeping cyclophilin or GAPDH as reference genes. Results were expressed as fold increase of gene expression in treated or untreated activated cells above the resting cells, after normalization to cyclophilin or GAPDH. Cells were also tested for viability to confirm that any effect on gene expression was indeed due to modulation of transcription of a specific target and not to cytoxicity.
(§6) Results were further expressed as percent inhibition of gene expression in compound treated activated cells over vehicle “treated” activated cells. Since the modulation of IL-10 and TNF-α gene expression by the compounds of the invention is relatively minor, it is not reported. […] Inhibition above 50% was considered significant.

[7] = system: iNOS; assay: Gene expression in LPS activated RAW 264.7 macrophages, iNOS; format: cell-based, mouse; conditions: RAW 264.7, 10 μM, LPS 1 μg/ml, RNA 3 hrs after activation, vs vehicle treated activated cells
Method: as §4, §5, §6

[8] = target: T2, Human CB1 Receptor (Homo sapiens, UniProt P21554); assay: [35S]GTPγS-binding assay, hCB1; format: biochemical; conditions: NB = no binding
T2 construct: expressed in transfected cells; host or cells: HEK-293 cells (membranes)
Method: as §1, §2, §3

[9] = system: MCP-1; assay: Gene expression in LPS activated RAW 264.7 macrophages, MCP-1; format: cell-based, mouse; conditions: RAW 264.7, 10 μM, LPS 1 μg/ml, RNA 3 hrs after activation, vs vehicle treated activated cells
Method: as §4, §5, §6

[10] = system: COX-2; assay: Gene expression in LPS activated RAW 264.7 macrophages, COX-2; format: cell-based, mouse; conditions: RAW 264.7, 10 μM, LPS 1 μg/ml, RNA 3 hrs after activation, vs vehicle treated activated cells
Method: as §4, §5, §6

[11] = 10 mg/kg i.p., 3 hours, mechanical stimulus, read-out: Percent Inhibition of Inflammatory Pain Responses, ΔForce
[12] = 10 mg/kg i.p., 3 hours, thermal stimulus, read-out: Percent Inhibition of Inflammatory Pain Responses, ΔLT

T2 sequence (P21554 whole entry): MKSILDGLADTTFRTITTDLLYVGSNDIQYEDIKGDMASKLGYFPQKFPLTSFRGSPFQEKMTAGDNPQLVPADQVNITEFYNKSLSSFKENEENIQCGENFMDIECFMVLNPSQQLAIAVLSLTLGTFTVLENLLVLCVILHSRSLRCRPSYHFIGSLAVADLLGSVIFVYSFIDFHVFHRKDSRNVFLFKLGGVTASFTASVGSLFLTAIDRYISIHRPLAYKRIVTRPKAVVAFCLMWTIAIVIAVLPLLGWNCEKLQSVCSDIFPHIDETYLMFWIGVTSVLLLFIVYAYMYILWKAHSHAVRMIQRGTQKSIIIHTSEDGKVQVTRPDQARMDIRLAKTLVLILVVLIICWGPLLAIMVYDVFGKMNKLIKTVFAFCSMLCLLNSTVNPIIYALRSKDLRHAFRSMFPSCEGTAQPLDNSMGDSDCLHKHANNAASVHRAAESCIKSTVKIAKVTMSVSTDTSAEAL
T1 sequence (P34972 whole entry): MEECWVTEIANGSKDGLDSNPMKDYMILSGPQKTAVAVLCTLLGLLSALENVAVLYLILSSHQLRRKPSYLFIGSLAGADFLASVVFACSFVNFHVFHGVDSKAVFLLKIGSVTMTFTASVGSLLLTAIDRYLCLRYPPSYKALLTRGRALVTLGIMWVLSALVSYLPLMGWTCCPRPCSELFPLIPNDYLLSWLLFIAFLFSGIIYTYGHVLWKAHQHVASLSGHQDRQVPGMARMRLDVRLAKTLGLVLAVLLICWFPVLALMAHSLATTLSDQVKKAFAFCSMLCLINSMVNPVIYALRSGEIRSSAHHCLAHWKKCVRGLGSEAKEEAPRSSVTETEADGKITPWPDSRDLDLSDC

O=C(O)c1cc(/N=N/c2ccc(S(=O)(=O)Nc3ccccn3)cc2)ccc1O [sulfasalazine, reference compound]
regained normal weight on ([1]; 10 mg/kg): 6 days | transient loss in body weight ([1]; 10 mg/kg): 10% | mortality ([1]; 10 mg/kg): 0%

CCCCCCC(C)(C)c1cc(OCC(=O)O)c2c(c1)OC1C(O)CCCCC21 (stereo not drawn) [Compound C7S-10, [2-(1,1-dimethylheptyl)-9-hydroxy-5,6,7,8,9,9a-hexahydro-4bH-10-oxa-benzo[α]azulen-4-yloxy]-acetic acid]
Percent Inhibition of Visceral Pain Writhing Responses [2]: 53% | pain response (Δforce) ([3]; last time point (4.5 hours)): totally abrogated the pain response | reduction of pain response (Δforce) ([3]; one hour after administration): 70-80% | Percent Inhibition of Inflammatory Pain Responses, Edema ([4]; 10 mg/kg i.p., 3 hours after carrageenan, reduction in paw swelling): 41% | Percent Inhibition of Inflammatory Pain Responses, ΔForce ([4]; 10 mg/kg i.p., 3 hours, mechanical stimulus): 25% | Percent Inhibition of Inflammatory Pain Responses, ΔLT ([4]; 10 mg/kg i.p., 3 hours, thermal stimulus): 61% | inhibition of paw swelling ([4]; 30 mg/kg p.o.): 60%

CCCCC(C)(C)c1cc(OC(=O)C=CC(=O)O)c2c3c(oc2c1)CCCC3 [Compound C6M-8, But-2-enedioic acid mono-[3-(1,1-dimethylpentyl)-6,7,8,9-tetrahydro-dibenzofuran-1-yl]ester]
EC50 [5]: > 10000 nM | Percent inhibition of gene expression, IL-1β [6]: 51% | inhibition in vivo at 10 mg/kg [4, 11]: 20% | inhibition in vivo at 10 mg/kg [4, 12]: 45% | Percent inhibition of gene expression, iNOS [7]: 66% | EC50 [8]: 0.25 nM | Emax ([8]; upper plateau of curve): -25% | Percent inhibition of gene expression, MCP-1 [9]: 85%

CCCCC(C)(C)c1cc(OCC(=O)O)c2c(c1)OC1CCCCC21 (stereo not drawn) [Compound C6S-9, [3-(1,1-Dimethylpentyl)-5a,6,7,8,9,9a-hexahydro-dibenzofuran-1-yloxy]-acetic acid]
transient loss in body weight ([1]; 20 mg/kg i.p. daily): behaved as the sulfasalazin treated group | mortality ([1]; 20 mg/kg i.p. daily): 0% | inhibition in vivo at 10 mg/kg [4, 11]: 14% | inhibition in vivo at 10 mg/kg [4, 12]: 53%

CCCCC(C)(C)c1cc(O)c2c(c1)OC1CC(C)(C)CCC21 (stereo not drawn) [Compound C6S-6, 3-(1,1-dimethylpentyl)-7,7-dimethyl-5a,6,7,8,9,9a-hexahydro-dibenzofuran-1-ol]
inhibition in vivo at 2 mg/kg ([2]; Mus musculus, iv, read-out: Percent Inhibition of Visceral Pain Writhing Responses): 38% | Percent inhibition of gene expression, COX-2 [10]: NO (NO indicates that the compound tested did not significantly affect the transcription of the gene assessed and that its activity is comparable to vehicle, within ±20% from this control) | Percent inhibition of gene expression, IL-1β [6]: 37% | Percent inhibition of gene expression, iNOS [7]: NO (NO indicates that the compound tested did not significantly affect the transcription of the gene assessed and that its activity is comparable to vehicle, within ±20% from this control) | Percent inhibition of gene expression, MCP-1 [9]: NO (NO indicates that the compound tested did not significantly affect the transcription of the gene assessed and that its activity is comparable to vehicle, within ±20% from this control)

— US20090054376A1, “BENZOFURAN DERIVATIVES WITH THERAPEUTIC ACTIVITIES” (Pharmos Corporation, priority 2005, published 2009)
